“And” between values parts separate entries of the source, which are not always exact repeats. Equal entries are not always repeated. Toxic doses and inconclusive results are not listed.
Tested on: L1210 leukemia ip in BDF1 mice, survival T/C
Experiment: NCI In Vivo Anticancer Drug Screen. Data for tumor model L1210 Leukemia (intraperitoneal) in B6D2F1 (BDF1) mice
Details: endpoint: mean survival time, higher = longer survival
Outline: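 Transplanted-tumor mice were given test agent; controls received vehicle only. Survival readings from the two groups were divided (treated over control).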

[1] = dose: 100.0 mg/kg/injection, schedule: Q04DX003 (ip), vehicle: Klucel (hydroxypropylcellulose) (HPC)
[2] = dose: 200.0 mg/kg/injection, schedule: Q04DX003 (ip), vehicle: Klucel (hydroxypropylcellulose) (HPC)
[3] = dose: 400.0 mg/kg/injection, schedule: Q04DX003 (ip), vehicle: Klucel (hydroxypropylcellulose) (HPC)
[4] = dose: 100.0 mg/kg/injection, schedule: Q01DX009 (ip), vehicle: Klucel (hydroxypropylcellulose) (HPC)
[5] = dose: 200.0 mg/kg/injection, schedule: Q01DX009 (ip), vehicle: Klucel (hydroxypropylcellulose) (HPC)
[6] = dose: 400.0 mg/kg/injection, schedule: Q01DX009 (ip), vehicle: Klucel (hydroxypropylcellulose) (HPC)

Cc1cc(C(C(N)=O)c2ccccc2)ccc1N(CCCl)CCCl (centres undefined)
T/C (dose: 2.0 mg/kg/injection, schedule: Q01DX009 (ip), vehicle: carboxymethylcellulose (CMC)): 116 % of control | T/C (dose: 3.7 mg/kg/injection, schedule: Q01DX015 (ip), vehicle: carboxymethylcellulose (CMC)): 121 % of control | T/C (dose: 4.0 mg/kg/injection, schedule: Q01DX009 (ip), vehicle: carboxymethylcellulose (CMC)): 124 % of control | T/C (dose: 7.2 mg/kg/injection, schedule: Q04DX003 (ip), vehicle: acetone): 104 % of control | T/C (dose: 20.0 mg/kg/injection, schedule: Q01DX009 (ip), vehicle: Klucel (hydroxypropylcellulose) (HPC)): 153 % of control | T/C (dose: 21.0 mg/kg/injection, schedule: Q04DX003 (ip), vehicle: acetone): 109 % of control and 121 % of control | T/C (dose: 21.0 mg/kg/injection, schedule: Q04DX003 (ip), vehicle: saline): 112 % of control | T/C (dose: 33.0 mg/kg/injection, schedule: Q04DX003 (ip), vehicle: saline): 118 % of control | T/C (dose: 37.5 mg/kg/injection, schedule: Q01DX009 (ip), vehicle: saline with Tween-80): 86 % of control | T/C (dose: 40.0 mg/kg/injection, schedule: Q01DX009 (ip), vehicle: Klucel (hydroxypropylcellulose) (HPC)): 101 % of control | T/C (dose: 45.0 mg/kg/injection, schedule: Q01DX015 (ip), vehicle: carboxymethylcellulose (CMC)): 95 % of control | T/C (dose: 49.0 mg/kg/injection, schedule: Q04DX003 (ip), vehicle: acetone): 120 % of control | T/C (dose: 50.0 mg/kg/injection, schedule: Q01DX001 (ip), vehicle: carboxymethylcellulose (CMC)): 114 % of control | T/C (dose: 50.0 mg/kg/injection, schedule: Q04DX003 (ip), vehicle: acetone): 123 % of control | T/C (dose: 50.0 mg/kg/injection, schedule: Q04DX003 (ip), vehicle: saline): 106 % of control | T/C (dose: 64.0 mg/kg/injection, schedule: Q01DX009 (ip), vehicle: carboxymethylcellulose (CMC)): 106 % of control | T/C (dose: 66.0 mg/kg/injection, schedule: Q01DX001 (ip), vehicle: saline): 116 % of control | T/C (dose: 66.0 mg/kg/injection, schedule: Q04DX003 (ip), vehicle: acetone): 112 % of control | T/C (dose: 88.8 mg/kg/injection, schedule: Q01DX001 (ip), vehicle: carboxymethylcellulose (CMC)): 123 % of control | T/C (dose: 100.0 mg/kg/injection, schedule: Q01DX001 (ip), vehicle: carboxymethylcellulose (CMC)): 112 % of control | T/C (dose: 100.0 mg/kg/injection, schedule: Q01DX001 (ip), vehicle: saline): 100 % of control | T/C (dose: 150.0 mg/kg/injection, schedule: Q04DX003 (ip), vehicle: acetone): 96 % of control | T/C (dose: 300.0 mg/kg/injection, schedule: Q01DX001 (ip), vehicle: carboxymethylcellulose (CMC)): 152 % of control

Cc1cc(C)c(O)c(C)c1.[Hg]
T/C (dose: 12.5 mg/kg/injection, schedule: Q01DX001 (ip), vehicle: Klucel (hydroxypropylcellulose) (HPC)): 87 % of control

COc1cc(-c2ccc(N=Nc3nc4nc(N)nc(O)c4[nH]3)c(OC)c2)ccc1N=Nc1nc2nc(N)nc(O)c2[nH]1
T/C [1]: 97 % of control | T/C [2]: 100 % of control | T/C [3]: 97 % of control

COC(=O)C12CCC(=O)CC1(O)c1ccc(OC)cc1CC2 (centres undefined)
T/C (dose: 100.0 mg/kg/injection, schedule: Q01DX001 (ip), vehicle: Klucel (hydroxypropylcellulose) (HPC)): 104 % of control | T/C (dose: 200.0 mg/kg/injection, schedule: Q01DX001 (ip), vehicle: Klucel (hydroxypropylcellulose) (HPC)): 107 % of control | T/C (dose: 400.0 mg/kg/injection, schedule: Q01DX001 (ip), vehicle: Klucel (hydroxypropylcellulose) (HPC)): 107 % of control

O=C(CCCCCCCCC(=O)Nc1cccc(C(F)(F)F)c1)Nc1cccc(C(F)(F)F)c1
T/C [4]: 101 % of control | T/C [5]: 92 % of control | T/C [6]: 95 % of control

CCCN1CCC(C(=O)CC)(c2cccc(O)c2)CC1
T/C (dose: 100.0 mg/kg/injection, schedule: Q04DX002 (ip), vehicle: Klucel (hydroxypropylcellulose) (HPC)): 106 % of control | T/C (dose: 200.0 mg/kg/injection, schedule: Q04DX002 (ip), vehicle: Klucel (hydroxypropylcellulose) (HPC)): 106 % of control

CN(C)c1ccc(/C=C/C=C2\c3ccccc3-c3ccc([N+](=O)[O-])cc32)cc1
T/C (dose: 100.0 mg/kg/injection, schedule: Q04DX003 (ip), vehicle: saline with Tween-80): 93 % of control | T/C (dose: 200.0 mg/kg/injection, schedule: Q04DX003 (ip), vehicle: saline with Tween-80): 102 % of control | T/C (dose: 400.0 mg/kg/injection, schedule: Q04DX003 (ip), vehicle: saline with Tween-80): 94 % of control

C[N+]1=CN(c2ccc(Cl)cc2)Cc2cc(Cl)ccc21
T/C [4]: 95 % of control | T/C [1]: 105 % of control | T/C [5]: 106 % of control | T/C [2]: 91 % of control | T/C [6]: 107 % of control | T/C [3]: 93 % of control
